Measured values as given in patent US11578013B2, “Nitrification inhibitors” (Lincoln University, priority 2020, dated 2023).

Columns and labels:
[1] = relative to table salt; cited from earlier work
rats = settings: female rats; cited from earlier work
[2] = tested on: nitrification in the soil; assay: Soil column study with static gas chambers (Study 2-14): nitrate-N and N2O emissions; settings: 10 kg/ha sprayed to soil surface, soil column
Description: To determine the effect of treating the soil with 4-Ethynylanisole on nitrification rate and nitrous oxide emissions, soil column studies with static gas chambers were conducted. The experiment was conducted in cylindrical PVC containers (Diameter=186 mm, Height=240 mm). The containers were filled with soil to half of the container's height (120 mm), leaving 120 mm headspace. The soil was Templeton sandy loam collected from Lincoln University Research Dairy Farm. It was screened using a 5 mm sieve and air-dried to the required moisture level and packed to bulk density of 1 g/cm3.
The experiment was conducted under controlled conditions. The temperature of the soil columns were maintained at around 12° C. by using a water bath to control the temperature.
The treatments included Control (Water), Control (animal urine), Control (urine+DMSO), Control (urine+DCD at 10 kg/ha) and urine+4-Ethynylanisole (10 kg/ha) in DMSO. Synthetic cow urine was applied at 700 kg N/ha (comprising about 87% urea-N and 13% glycine-N), and 4-Ethynylanisole was applied at 10 kg/ha. There were two sets of cores for each treatment, one set were fitted with static gas chambers with removable lids for nitrous oxide sampling, and the other set used for soil sampling. The urine was sprayed to the surface of the soil simulating urine deposition by a grazing animal; DMSO, or DCD or 4-Ethynylanisole mixed with DMSO was also sprayed onto the urine treated soils to simulate the treatment of urine patches. Nitrous oxide gas measurements followed these treatments—as is detailed further below.
For the soil columns that were set up for taking soil samples for analysis of mineral nitrogen, the different treatments were mixed with the soil for soil sampling. Soil moisture was adjusted to 100% field capacity (FC) and maintained between 80 and 100% FC over the duration of the experiment.
Nitrous oxide (N2O) gas sampling was conducted twice a week using the standard procedure (Di et al., 2007). Vials were evacuated prior to sampling. Three gas samples were taken with 20 minute intervals between each sampling. Sampling frequency was reduced to once a week when N2O fluxes decreased in intensity.
Soil sampling was conducted on Day 1, 7, 14, 30, and 60. The soil samples were analysed for mineral nitrogen.

[3] = tested on: nitrification in the soil; assay: Laboratory soil incubation, Templeton sandy loam with synthetic cow urine, nitrate-N; settings: day 30
Description: A Templeton sandy loam was used in this experiment. 500 g of soil (dry weight basis) was packed into a pottle. 50 mL of synthetic cow urine with an N concentration of 7 g N/L (comprising about 87% urea-N and 13% glycine-N) was applied to the soil (equivalent to 700 kg N/ha on weight basis, assuming bulk density of 1 g/cm^3 in the top 10 cm of soil). The 700 kg N/ha application was used to simulate the urine-N application rate under a typical dairy cow urine patch in a grazed pasture.
Control treatments also added to soil were: • urine alone (50 mL); • DMSO (equivalent to 0.9 mL/500 g soil)+urine (50 mL) to determine the effect of DMSO on nitrification rate; • water alone (50 mL) (simulating areas of the soil where no urine was deposited).
Pottles were covered with lids with breathing holes to allow for gas exchange during incubation. Pottles were incubated at 12° C. Soil moisture content was maintained at field capacity by adjusting on weight basis twice a week.
Soil samples were collected and were then thoroughly mixed and subsamples were extracted in a potassium chloride solution and analysed for mineral-N. Soil moisture content was also determined. Samples were taken at 30 days after the start of incubation. […]

nitrification = assay: Table 1 summary: compounds found to work or not work as nitrification inhibitors, Inhib(%); set-up: concentration or dose not given beside the values; settings: test and rate not given
Description: The phenotypic screening involved assessing the nitrification inhibition potency of the selected 5000 compounds against a key ammonia oxidizing bacterium responsible for ammonia oxidation in the soil, Nitrosomonas europaea, in 96-well microtiter plates. N. europaea cells were grown in the presence of an ammonium source, and the potential of putative nitrification inhibitors to inhibit the production of nitrite (NO2) was measured relative to untreated cells.
A summary of selected compounds initially found to either work or not work as nitrification inhibitors is detailed in Table 1 below.

| melting point [°C] | SMILES | toxicity rating [1] | oral LD50 (rats) | N2O—N emissions lower than urine alone control [2] [%] | nitrate-N concentration in the soil compared with urine alone or urine+DMSO ([3]; 1 kg/ha) | nitrate-N concentration in the soil compared with urine alone or urine+DMSO ([3]; 2 kg/ha) | Inhib(%) (nitrification) |
| --- | --- | --- | --- | --- | --- | --- | --- |
| – | N#CNC(=N)N [DCD, dicyandiamide] | 10 times less toxic than table salt | greater than 30,000 mg kg^−1 body weight | 43.4 | – | – | – |
| 82.3 to 83.1 | C#Cc1cnc(OC)nc1 [5-Ethynyl-2-methoxypyrimidine] | – | – | – | lower nitrate-N concentrations | lower nitrate-N concentrations | 100 |
| 51.7 to 53.1 | C#Cc1ccc(OC)nn1 [3-Ethynyl-6-methoxypyridazine] | – | – | – | lower nitrate-N concentrations | lower nitrate-N concentrations | – |
